Assays:
Burkholderia cepacia [1] = assay: Survival of flies after Burkholderia cepacia infection; format: in vivo, Drosophila; conditions: relative to vehicle-fed controls, p<0.0001
Description: Infections were performed as previously described (Schneider et al. 2007) with Burkholderia cepacia (ATCC strain #25416). Death was assayed visually the next day every hour or more frequently as needed. Survival curves are plotted as Kaplan-Meier graphs and log-rank analysis performed using GraphPad Prism. All infection experiments were performed with a minimum of 3 independent trials and yielded statistically similar results, except where noted. Graphs and p-values in figures are representative trials.
To directly test the role of TORC1 in survival of infection, TORC1 activity was inhibited in two ways. First, flies were injected with rapamycin, a TORC1-specific inhibitor (9.6 ng per fly, equivalent to the mammalian dose of 16 mg/kg (Lee et al. 2009; Loeweth et al. 2002)).
Wild type flies, 5-7 day old males, were fed two different concentrations (250 μM and 500 μM) of Torin (MedChem Express), a TORC1 and TORC2 inhibitor, for two days prior to infection with Burkholderia cepacia as described in Example 1. Controls were fed a vehicle.

Burkholderia cepacia [2] = assay: Bacterial load quantitation after Burkholderia cepacia infection; format: in vivo, Drosophila; conditions: wild type flies fed Torin vs vehicle-fed flies
Source text: Data are plotted with SEM.

Torin
survival of infection (Burkholderia cepacia [1]; wild type male flies fed 250 μM for two days prior to infection): significantly increased
survival of infection (Burkholderia cepacia [1]; wild type male flies fed 500 μM for two days prior to infection): significantly increased
bacterial load (Burkholderia cepacia [2]): not significant change

— patent US11116754B2, “Inhibition of TOR complex 2 increases immunity against bacterial infection” (THE TRUSTEES OF COLUMBIA UNIVERSITY IN THE CITY OF NEW YORK, priority 2015, dated 2021)
